In patent EP4745135A1 (Gluetacs Therapeutics (Shanghai) Co., Ltd., priority 2023, dated 2025):

How the values were obtained:
[1] = test system: Human T cell acute lymphoblastic leukemia cell (CCRF-CEM); test: Tumor cell proliferation inhibition (CellTiter-Meiluncell luminescent cell viability assay); settings: 96 h; for inhibition at 0.01 µM: read-out: Inhibition Rate at 10 nM (%); for inhibition at 0.5 µM: read-out: Inhibition Rate at 500 nM (%)
Experimental: (§1) The tumor cells used herein were cultured in a cell culture medium listed in table 2 at 37°C in an incubator with 5% CO2. Prior to experimentation, all cell lines used were correctly identified by STR profiling, and tested negative for mycoplasma contamination using a mycoplasma detection kit through routine screenings.
(§2) The IC50 values of the compounds of the present disclosure (including the compounds in Table 1 and Examples) were determined using the CellTiter-Meiluncell Luminescent Cell Viability Assay Kit from Dalian Meilun Biotech Co., Ltd. The detailed procedure is as follows: Tumor cells were seeded in 96-well cell culture plates at the densities specified in Table 3. On the following day, the test compounds of the present disclosure were subjected to serial dilution. The dilution can be performed according to one of the following two methods: • (1) The first dilution method: The test compounds of the present disclosure (including the compounds in Table 1 and Examples) were subjected to 5-fold serial dilutions starting from a highest concentration of 2000 µM, resulting in a total of 9 concentrations from high to low (2000, 400, 80, 16, 3.2, 0.64, 0.128, 0.0256, 0.00512 µM). Subsequently, 0.5 µL of the test compound dilution was transferred into the 96-well plate containing the cells, with each well containing 100 µL of cell culture medium. […] Into the 96-well plate, the diluted test compounds and corresponding detection reagents were added, resulting in final test compound concentrations of 500 nM and 10 nM, respectively. The experimental procedure is described below using the diluted 2 µM test compound as an example.
(§3) 0.5 µL of the aforementioned diluted compound of the present disclosure (including the compounds in Table 1 and Examples) was added to the seeded cells in 100 µL of medium, yielding a final test compound concentration of 10 nM. After the cells were treated with the compounds of the present disclosure for a specified period, the cell viability assay reagent was added to the culture medium according to the kit's instructions to determine cell viability. […] All controls were treated using the same procedure as the compounds of the present disclosure. The growth inhibition curves for the compounds of the present disclosure were plotted using Prism GraphPad software, and the IC50 values were calculated therefrom.

[2] = test system: Human T lymphocytic leukemia cell line: Jurkat; test: as above; settings: 96 h; for inhibition at 0.01 µM: read-out: Inhibition Rate at 10 nM (%); for inhibition at 0.5 µM: read-out: Inhibition Rate at 500 nM (%)
Experimental: as §1, §2, §3

[3] = test system: Human multiple myeloma cell (MM.1S); test: as above; settings: for inhibition at 0.01 µM / inhibition at 0.5 µM: Homo sapiens, MM1.S, 96 h; for inhibition at 0.01 µM: read-out: Inhibition Rate at 10 nM (%); for Inhibition Rate at 500 nM (%): MM.1S, 96 hours; for inhibition at 0.5 µM: read-out: Inhibition Rate at 500 nM (%)
[4] = test system: Human multiple myeloma peripheral blood B lymphocyte cell (RPMI-8226); test: as above; settings: RPMI-8226, 96 h; for inhibition at 0.01 µM: read-out: Inhibition Rate at 10 nM (%); for inhibition at 0.5 µM: read-out: Inhibition Rate at 500 nM (%)
[5] = test system: Human acute myeloid leukemia cell line: Kasumi-1; test: as above; settings: Kasumi 1, 96 h; for inhibition at 0.01 µM: read-out: Inhibition Rate at 10 nM (%); for inhibition at 0.5 µM: read-out: Inhibition Rate at 500 nM (%)
[6] = test system: Human acute T lymphocytic leukemia cell (Molt4); test: as above; settings: MOLT-4, 96 h; for inhibition at 0.01 µM: read-out: Inhibition Rate at 10 nM (%); for inhibition at 0.5 µM: read-out: Inhibition Rate at 500 nM (%)
[7] = test system: Human myeloid monocytic leukemia cell (MV-4-11); test: as above; settings: MV4-11, 96 h; for inhibition at 0.01 µM: read-out: Inhibition Rate at 10 nM (%); for inhibition at 0.5 µM: read-out: Inhibition Rate at 500 nM (%)
[8] = molecular target: T1, IKZF1 (Homo sapiens, UniProt Q13422+Q96SW2); test: Western blot, degradation of substrate protein in hPBMCs; type: cell-based
T1 construct: effects of the compounds of the present disclosure on the expression of target proteins in cells; endogenous in cells; host or cells: human PBMCs (Milecell Biotechnologies)

[9] = molecular target: T2, IKZF2 (Homo sapiens, UniProt Q96SW2+Q9UKS7); test: as above; type: cell-based
T2 construct: effects of the compounds of the present disclosure on the expression of target proteins in cells; endogenous in cells; host or cells: human PBMCs (Milecell Biotechnologies)

[10] = molecular target: T3, CK1α (Homo sapiens, UniProt P48729+Q96SW2); test: as above; type: cell-based
T3 construct: effects of the compounds of the present disclosure on the expression of target proteins in cells; endogenous in cells; host or cells: human PBMCs (Milecell Biotechnologies)

[11] = molecular target: T4, IKZF3 (Homo sapiens, UniProt Q96SW2+Q9UKT9); test: as above; type: cell-based
T4 construct: effects of the compounds of the present disclosure on the expression of target proteins in cells; endogenous in cells; host or cells: human PBMCs (Milecell Biotechnologies)

[12] = molecular target: T5, WEE1 (Homo sapiens, UniProt P30291+Q96SW2); test: as above; type: cell-based
T5 construct: effects of the compounds of the present disclosure on the expression of target proteins in cells; endogenous in cells; host or cells: human PBMCs (Milecell Biotechnologies)

[13] = molecular target: T6, human Cereblon WT GST-tagged protein (Homo sapiens, UniProt Q96SW2); test: CRBN-binding affinity, HTRF (CEREBLON BINDING kit); settings: for inhibition at 0.5 µM: read-out: Inhibition Rate at 0.5 µM (%); for inhibition at 2 µM: read-out: Inhibition Rate at 2 µM (%)
T6 construct: purchased CISBIO 64BDCRBNPEH

[14] = test system: GSPT1; test: Western blot, degradation of substrate protein in hPBMCs; type: cell-based, Human
[15] = 24 hours treatment, compounds at 50 nM and 500 nM (concentration behind the class not stated)
[16] = Western blot, 24 hours of compound treatment, compounds tested at 50 nM and 500 nM (concentration for the table not stated)

T4 sequence (Q9UKT9 whole entry): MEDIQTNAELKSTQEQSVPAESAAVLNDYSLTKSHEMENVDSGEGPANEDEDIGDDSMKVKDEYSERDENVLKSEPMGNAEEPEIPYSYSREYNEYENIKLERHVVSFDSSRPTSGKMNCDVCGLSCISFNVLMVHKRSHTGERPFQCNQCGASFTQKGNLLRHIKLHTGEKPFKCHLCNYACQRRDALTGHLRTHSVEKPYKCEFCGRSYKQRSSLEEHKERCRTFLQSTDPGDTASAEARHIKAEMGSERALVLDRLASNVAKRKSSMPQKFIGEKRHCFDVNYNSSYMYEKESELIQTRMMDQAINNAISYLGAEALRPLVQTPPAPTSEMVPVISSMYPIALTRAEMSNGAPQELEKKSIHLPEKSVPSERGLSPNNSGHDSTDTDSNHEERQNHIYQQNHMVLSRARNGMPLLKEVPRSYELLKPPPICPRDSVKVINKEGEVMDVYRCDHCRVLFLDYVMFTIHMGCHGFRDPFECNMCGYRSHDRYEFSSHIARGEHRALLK
T4 sequence (Q96SW2 whole entry): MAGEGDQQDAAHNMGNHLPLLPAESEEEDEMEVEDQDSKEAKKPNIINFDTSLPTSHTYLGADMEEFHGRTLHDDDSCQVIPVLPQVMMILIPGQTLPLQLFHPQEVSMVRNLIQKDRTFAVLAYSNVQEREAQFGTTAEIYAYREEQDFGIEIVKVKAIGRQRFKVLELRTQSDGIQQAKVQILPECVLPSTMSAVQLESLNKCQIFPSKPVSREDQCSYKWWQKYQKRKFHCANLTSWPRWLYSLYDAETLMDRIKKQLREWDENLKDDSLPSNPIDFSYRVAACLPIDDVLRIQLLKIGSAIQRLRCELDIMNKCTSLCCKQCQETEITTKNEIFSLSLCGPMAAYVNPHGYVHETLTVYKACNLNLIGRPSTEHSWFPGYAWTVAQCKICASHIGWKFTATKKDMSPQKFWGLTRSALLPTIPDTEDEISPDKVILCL
T4 sequence (Q16531 whole entry partner): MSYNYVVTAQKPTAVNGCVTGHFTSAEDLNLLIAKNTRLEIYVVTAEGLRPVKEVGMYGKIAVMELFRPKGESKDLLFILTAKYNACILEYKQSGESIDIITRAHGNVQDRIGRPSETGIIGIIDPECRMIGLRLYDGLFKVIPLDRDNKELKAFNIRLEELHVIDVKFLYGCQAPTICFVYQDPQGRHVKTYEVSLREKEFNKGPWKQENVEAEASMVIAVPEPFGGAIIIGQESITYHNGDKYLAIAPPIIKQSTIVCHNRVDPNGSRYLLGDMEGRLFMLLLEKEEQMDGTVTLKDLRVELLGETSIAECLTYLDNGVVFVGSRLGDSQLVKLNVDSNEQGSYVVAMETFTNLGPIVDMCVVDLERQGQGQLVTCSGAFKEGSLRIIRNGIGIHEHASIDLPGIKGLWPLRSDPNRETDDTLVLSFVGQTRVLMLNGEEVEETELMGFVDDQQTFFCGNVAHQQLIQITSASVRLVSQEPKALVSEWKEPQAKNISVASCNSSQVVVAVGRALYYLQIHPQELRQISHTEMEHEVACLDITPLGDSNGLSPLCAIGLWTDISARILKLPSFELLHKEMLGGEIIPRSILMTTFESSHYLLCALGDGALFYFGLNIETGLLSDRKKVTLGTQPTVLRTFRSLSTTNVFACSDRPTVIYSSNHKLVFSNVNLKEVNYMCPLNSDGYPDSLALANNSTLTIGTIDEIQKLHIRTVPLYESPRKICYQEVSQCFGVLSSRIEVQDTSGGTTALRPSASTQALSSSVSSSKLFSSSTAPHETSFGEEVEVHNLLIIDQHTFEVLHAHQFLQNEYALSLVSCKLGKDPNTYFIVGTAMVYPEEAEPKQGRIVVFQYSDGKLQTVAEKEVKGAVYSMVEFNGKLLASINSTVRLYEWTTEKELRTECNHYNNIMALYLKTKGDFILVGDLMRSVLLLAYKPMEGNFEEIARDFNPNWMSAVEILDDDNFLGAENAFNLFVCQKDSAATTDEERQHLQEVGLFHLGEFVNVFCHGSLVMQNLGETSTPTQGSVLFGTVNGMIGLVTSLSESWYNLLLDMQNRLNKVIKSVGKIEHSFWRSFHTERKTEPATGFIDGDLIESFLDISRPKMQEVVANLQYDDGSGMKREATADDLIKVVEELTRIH
T6 sequence (Q96SW2 whole entry): as the sequence (Q96SW2 whole entry) above
T1 sequence (Q13422 whole entry): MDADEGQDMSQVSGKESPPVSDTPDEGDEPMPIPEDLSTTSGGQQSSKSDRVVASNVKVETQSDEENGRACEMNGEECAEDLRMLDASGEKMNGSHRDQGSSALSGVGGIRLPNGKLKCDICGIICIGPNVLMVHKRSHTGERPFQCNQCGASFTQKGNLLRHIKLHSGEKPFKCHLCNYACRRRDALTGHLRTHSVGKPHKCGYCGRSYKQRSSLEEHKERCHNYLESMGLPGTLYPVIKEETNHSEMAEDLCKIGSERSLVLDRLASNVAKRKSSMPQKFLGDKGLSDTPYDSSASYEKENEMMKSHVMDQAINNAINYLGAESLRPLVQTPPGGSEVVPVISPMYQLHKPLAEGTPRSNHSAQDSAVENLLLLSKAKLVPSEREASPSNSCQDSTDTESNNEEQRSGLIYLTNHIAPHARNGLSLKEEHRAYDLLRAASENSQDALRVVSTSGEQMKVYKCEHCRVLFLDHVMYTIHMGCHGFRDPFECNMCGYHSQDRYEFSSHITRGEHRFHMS
T1 sequence (Q96SW2 whole entry): as the sequence (Q96SW2 whole entry) above
T1 sequence (Q16531 whole entry partner): as the sequence (Q16531 whole entry partner) above
T2 sequence (Q9UKS7 whole entry): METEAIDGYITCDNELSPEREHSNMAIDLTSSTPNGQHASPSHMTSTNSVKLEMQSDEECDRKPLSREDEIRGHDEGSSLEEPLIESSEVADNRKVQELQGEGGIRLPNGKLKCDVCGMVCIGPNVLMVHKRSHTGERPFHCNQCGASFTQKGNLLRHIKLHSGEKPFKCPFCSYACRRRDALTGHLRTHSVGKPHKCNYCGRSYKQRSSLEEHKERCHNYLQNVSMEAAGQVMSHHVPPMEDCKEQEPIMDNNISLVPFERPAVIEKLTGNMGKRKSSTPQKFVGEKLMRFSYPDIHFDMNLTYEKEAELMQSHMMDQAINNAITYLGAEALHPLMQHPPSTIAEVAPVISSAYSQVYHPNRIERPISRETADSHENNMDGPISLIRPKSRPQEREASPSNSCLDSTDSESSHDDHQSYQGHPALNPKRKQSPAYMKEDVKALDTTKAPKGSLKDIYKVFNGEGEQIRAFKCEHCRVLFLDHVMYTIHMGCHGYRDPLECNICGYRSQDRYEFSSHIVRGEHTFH
T2 sequence (Q96SW2 whole entry): as the sequence (Q96SW2 whole entry) above
T2 sequence (Q16531 whole entry partner): as the sequence (Q16531 whole entry partner) above
T3 sequence (P48729 whole entry): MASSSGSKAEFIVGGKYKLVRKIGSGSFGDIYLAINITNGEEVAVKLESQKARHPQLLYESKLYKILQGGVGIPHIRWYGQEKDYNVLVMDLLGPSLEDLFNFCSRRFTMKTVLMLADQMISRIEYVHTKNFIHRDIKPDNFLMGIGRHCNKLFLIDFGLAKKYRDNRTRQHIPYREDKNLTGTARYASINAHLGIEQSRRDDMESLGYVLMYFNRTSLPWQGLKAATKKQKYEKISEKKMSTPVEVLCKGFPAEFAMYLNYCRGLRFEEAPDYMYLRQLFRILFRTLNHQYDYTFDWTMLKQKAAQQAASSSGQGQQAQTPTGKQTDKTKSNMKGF
T3 sequence (Q96SW2 whole entry): as the sequence (Q96SW2 whole entry) above
T3 sequence (Q16531 whole entry partner): as the sequence (Q16531 whole entry partner) above
T5 sequence (P30291 whole entry): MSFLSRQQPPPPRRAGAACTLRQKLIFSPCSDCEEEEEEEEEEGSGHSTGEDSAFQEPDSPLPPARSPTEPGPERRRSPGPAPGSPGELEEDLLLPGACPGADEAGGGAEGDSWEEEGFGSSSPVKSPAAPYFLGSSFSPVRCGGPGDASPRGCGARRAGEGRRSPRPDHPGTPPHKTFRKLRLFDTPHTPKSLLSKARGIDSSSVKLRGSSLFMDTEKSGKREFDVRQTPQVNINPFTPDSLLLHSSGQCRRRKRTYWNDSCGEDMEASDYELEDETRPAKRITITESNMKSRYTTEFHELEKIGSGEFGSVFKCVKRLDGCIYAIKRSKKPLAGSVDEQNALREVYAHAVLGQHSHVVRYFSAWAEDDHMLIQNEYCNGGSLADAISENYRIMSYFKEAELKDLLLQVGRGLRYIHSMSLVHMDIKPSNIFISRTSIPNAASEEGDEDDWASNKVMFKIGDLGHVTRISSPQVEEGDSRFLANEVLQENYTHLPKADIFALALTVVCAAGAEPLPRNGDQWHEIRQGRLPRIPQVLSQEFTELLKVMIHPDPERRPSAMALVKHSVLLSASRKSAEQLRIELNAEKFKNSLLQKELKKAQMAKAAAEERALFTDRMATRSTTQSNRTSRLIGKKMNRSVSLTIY
T5 sequence (Q96SW2 whole entry): as the sequence (Q96SW2 whole entry) above
T5 sequence (Q16531 whole entry partner): as the sequence (Q16531 whole entry partner) above

Row | Compound | inhibition at 0.01 µM [1] [%] | inhibition at 0.5 µM [1] [%] | inhibition at 0.01 µM [2] [%] | inhibition at 0.5 µM [2] [%] | inhibition at 0.01 µM [3] [%] | inhibition at 0.01 µM [5] [%] | inhibition at 0.5 µM [5] [%] | inhibition at 0.01 µM [6] [%] | inhibition at 0.5 µM [6] [%] | inhibition at 0.01 µM [7] [%] | inhibition at 0.5 µM [7] [%] | IKZF 1 substrate protein remaining % [8, 15] | IKZF2 substrate protein remaining % [9, 15] | CK1α substrate protein remaining % [10, 15] | IKZF3 substrate protein remaining % [11, 15] | Wee1 substrate protein remaining % [12, 15] | inhibition at 0.5 µM [13] [%] | inhibition at 2 µM [13] [%] | GSPT1 substrate protein remaining % [14, 15] | inhibition at 0.5 µM [3] [%] | further results
1 | O=C1CCC(N2Cc3cc(CN4CCC(c5cccs5)CC4)ccc3C2=S)C(=O)N1 (stereo not drawn) [GT-08329, 3-(5-((4-(thiophen-2-yl)piperidin-1-yl)methyl)-1-thioxoisoindolin-2-yl)piperidine-2,6-dione] | 10 to 20 | 80 to 100 | 10 to 20 | 70 to 80 | 10 to 20 | 5 to 10 | 80 to 100 | 10 to 20 | 80 to 100 | -5 to 0 | 80 to 100 | B (80%< substrate protein remaining %≤ 100%) | B (80%< substrate protein remaining %≤ 100%) | A (0% ≤ substrate protein remaining % ≤ 80%) | B (80%< substrate protein remaining %≤ 100%) | A (0% ≤ substrate protein remaining % ≤ 80%) | 40 to 53 | 80 to 100 | A (0% ≤ substrate protein remaining % ≤ 80%) | – | Inhibition Rate at 500 nM (%) [3]: la10; inhibition at 0.01 µM [4]: 10 to 20%; inhibition at 0.5 µM [4]: 70 to 80%
2 | O=C1CCC(N2Cc3cc(CN4CC=C(c5ccoc5)CC4)ccc3C2=S)C(=O)N1 (stereo not drawn) [GT-08328, 3-(5-((4-(furan-3-yl)-3,6-dihydropyridin-1(2H)-yl)methyl)-1-thioxoisoindolin-2-yl)piperidine-2,6-dione] | 10 to 20 | 80 to 100 | 0 to 5 | 40 to 50 | 50 to 60 | 5 to 10 | 60 to 70 | 10 to 20 | 80 to 100 | 40 to 60 | 80 to 100 | B (80%< substrate protein remaining %≤ 100%) | B (80%< substrate protein remaining %≤ 100%) | A (0% ≤ substrate protein remaining % ≤ 80%) | B (80%< substrate protein remaining %≤ 100%) | A (0% ≤ substrate protein remaining % ≤ 80%) | 60 to 80 | 80 to 100 | A (0% ≤ substrate protein remaining % ≤ 80%) | 80 to 100 | –
3 | O=C1CCC(N2Cc3cc(CN4CCC(c5cccc(F)c5F)CC4)ccc3C2=S)C(=O)N1 (stereo not drawn) [GT-08331, 3-(5-((4-(2,3-difluorophenyl)piperidin-1-yl)methyl)-1-thioxoisoindolin-2-yl)piperidine-2,6-dione] | 5 to 10 | 80 to 100 | 5 to 10 | 50 to 60 | 10 to 20 | 5 to 10 | 70 to 80 | 10 to 20 | 80 to 100 | – | – | A (0% ≤ substrate protein remaining % ≤ 80%) | A (0% ≤ substrate protein remaining % ≤ 80%) | A (0% ≤ substrate protein remaining % ≤ 80%) | B (80%< substrate protein remaining %≤ 100%) | A (0% ≤ substrate protein remaining % ≤ 80%) | 40 to 53 | 80 to 100 | A (0% ≤ substrate protein remaining % ≤ 80%) | 80 to 100 | inhibition at 0.01 µM [4]: 10 to 20%; inhibition at 0.5 µM [4]: 40 to 50%
4 | O=C1CCC(N2Cc3cc(CN4CCC(c5ccsc5)CC4)ccc3C2=S)C(=O)N1 (stereo not drawn) [GT-08324, 3-(5-((4-(thiophen-3-yl)piperidin-1-yl)methyl)-1-thioxoisoindolin-2-yl)piperidine-2,6-dione] | 5 to 10 | 80 to 100 | -5 to 0 | 40 to 50 | 20 to 30 | 0 to 5 | 60 to 70 | 10 to 20 | 80 to 100 | 30 to 40 | 80 to 100 | A (0% ≤ substrate protein remaining % ≤ 80%) | A (0% ≤ substrate protein remaining % ≤ 80%) | A (0% ≤ substrate protein remaining % ≤ 80%) | B (80%< substrate protein remaining %≤ 100%) | A (0% ≤ substrate protein remaining % ≤ 80%) | 60 to 80 | 80 to 100 | A (0% ≤ substrate protein remaining % ≤ 80%) | 80 to 100 | –
5 | O=C1CCC(N2Cc3cc(CN4CCN(c5ccccc5)CC4)ccc3C2=S)C(=O)N1 (stereo not drawn) [GT-08205, 3-(5-((4-phenylpiperazin-1-yl)methyl)-1-thioxoisoindolin-2-yl)piperidine-2,6-dione] | 10 to 20 | 60 to 70 | 5 to 10 | 30 to 40 | 10 to 20 | 10 to 20 | 40 to 50 | 0 to 5 | 60 to 70 | 5 to 10 | 80 to 100 | – | – | – | – | – | 60 to 80 | 80 to 100 | – | – | Inhibition Rate at 500 nM (%) [3]: la8; IKZF 1 substrate protein remaining % [8, 16]: B (80%< substrate protein remaining %≤ 100%); IKZF2 substrate protein remaining % [9, 16]: A (0% ≤ substrate protein remaining % ≤ 80%); CK1α substrate protein remaining % [10, 16]: B (80%< substrate protein remaining %≤ 100%); IKZF3 substrate protein remaining % [11, 16]: A (0% ≤ substrate protein remaining % ≤ 80%); Wee1 substrate protein remaining % [12, 16]: A (0% ≤ substrate protein remaining % ≤ 80%); GSPT1 substrate protein remaining % [14, 16]: A (0% ≤ substrate protein remaining % ≤ 80%)
6 | Cc1ccc(Sc2ccccc2N2CCN(Cc3cccc4c3CN(C3CCC(=O)NC3=O)C4=S)CC2)c(C)c1 (stereo not drawn) [GT-08332, 3-(4-((4-(2-((2,4-dimethylphenyl)thio)phenyl)piperazin-1-yl)methyl)-1-thioxoisoindolin-2-yl)piperidine-2,6-dione] | -5 to 0 | 80 to 100 | 0 to 5 | 80 to 100 | 10 to 20 | -5 to 0 | 80 to 100 | -5 to 0 | 80 to 100 | -5 to 0 | 60 to 80 | A (0% ≤ substrate protein remaining % ≤ 80%) | A (0% ≤ substrate protein remaining % ≤ 80%) | A (0% ≤ substrate protein remaining % ≤ 80%) | B (80%< substrate protein remaining %≤ 100%) | A (0% ≤ substrate protein remaining % ≤ 80%) | – | – | A (0% ≤ substrate protein remaining % ≤ 80%) | 80 to 100 | –
